Results published in paper PMC8850458, “The AUTOTAC chemical biology platform for targeted protein degradation via the autophagy-lysosome system” (Nature Communications, 2022).
pIC50: −log10 of the molar value. Values joined by “and” are separate entries in the source; they are usually repeats but may differ in a detail not shown here. Identical values can stand only once. Like-named read-outs stand apart in the source and are kept apart here.

Tests used:
Ub^+ and p62^+ puncta = test: ICC of Ub (FK2) and p62 puncta in HeLa cells; assay type: cell-based; details: Fig. 4i
Protocol: Fig. 4 Targeted autophagic delivery and degradation of misfolded protein cargoes using AUTOTACs with aggregate-binding warhead. a A model illustrating the mode of action of aggregate-targeting AUTOTAC. b Chemical structures of PBA-1105, PBA-1106, Anle138b-F105 and PBA-1105b. c In vitro p62 oligomerization assay in HEK293T cells incubated with the indicated compounds in (b). d WB in HEK293T cells treated with MG132 (1 μM, 24 h), HCQ (10 μM, 24 h), PBA-1105, YTK-1105, and PBA (1 μM, 24 h). e Identical to (d), but with Anle-F105. f ICC of HeLa cells treated with HCQ (10 μM, 24 h), MG132 (2 μM, 18 h) or both in the presence of PBA-1106, YOK-1106 or PBA (1 μM, 24 h). Scale bar, 10 μm. g Quantification of (f) (n = 3, 50 cells). h ICC of HeLa cells treated with Anle138b-F105 (1 μM, 24 h). Scale bar, 10 μm. i Quantification of (h) (n = 3, 50 cells). When indicated, n = 3 biologically independent experiments each counting 50 cells. Data are presented as mean values ± SD where relevant. P-values (from a two-sided unpaired t test): ***P < 7.66E−05. Source data are provided with this paper.
Cells were cultured on coverslips coated with poly-L-lysine (Sigma) to observe cellular localization of proteins. Using 4% paraformaldehyde in PBS (pH 7.4), the cells were fixed for 15 min at room temperature and washed three times for 5 min with PBS. After fixing, the cells were permeabilized with 0.5% Triton X-100 in PBS solution for 15 min and washed three times with PBS for 5 min. The cells were blocked containing 2% BSA in PBS solution for 1 h at room temperature. Subsequently, the cells were incubated with primary antibody diluted in 2% BSA/PBS solution overnight at 4 °C, followed by washing the cells three times for 10 min with PBS and incubated with Alexa Fluor-conjugated secondary antibody diluted in 2% BSA/PBS for 30 min at room temperature. Using a DAPI-containing mounting medium (Vector Laboratories), the coverslips were mounted on glass slides. Confocal images were taken by laser scanning confocal microscope 510 Meta (Zeiss) and analyzed by Zeiss LSM Image Browser (ver. 4.2.0.121). […] Quantification results are shown as mean ± S.D. or S.E.M. of three independent experiments

tauP301L = tauP301L (Homo sapiens, UniProt P10636, P618L); test: WB degradation of tauP301L in SH-SY5Y-tauP301L cells; assay type: cell-based; details: densitometry, dosage degradation, SH-SY5Y-Tau-TiFC; for Tau normalized to GAPDH and control, AVG %: average of N=3
Protocol: (§1) Adherent cells were washed with phosphate-buffered saline (PBS) and cell pellets were lysed in SDS-based sample buffer (277.8 mM Tris-HCI, pH 6.8, 4.4% LDS, 44.4% (v/v) glycerol) containing beta-mercaptoethanol. Alternatively, cell pellets or protein supernatants were lysed in 5X Laemmli sample buffer. Whole-cell lysates were separated using SDS-PAGE, and transferred onto polyvinyllidene difluoride membranes at 100 V for 2 h at 4 °C. The membrane was incubated with a blocking solution consisting 4% skim milk in PBS solution for 30 min at room temperature and incubated with primary antibodies overnight, followed by incubation with host-specific HRP-conjugated secondary antibodies (1:10000 dilution). For signal detection, the membrane was developed with a mixture of ECL solution (Thermo Fisher Scientific) using X-ray films. Densitometry of developed bands was measured and analyzed with ImageJ (NIH, Bethesda).

[1] = target: T1, methionine aminopeptidase 2 (MetAP2) (Homo sapiens, UniProt P50579); test: Western blot degradation of MetAP2; assay type: cell-based; details: 293T, 24 h
T1 construct: Targeted autophagic degradation of endogenous oncoproteins by AUTOTAC; endogenous in cells; host or cells: HEK293 / HEK293T, U87-MG
Protocol: as §1

ACHN cells = test: WST-based cell viability assay in ACHN cells; details: for WST assay viability, AVG % / WST assay raw reading / WST assay viability relative to con = 100: ACHN; for WST assay raw reading / WST assay viability relative to con = 100: duplicates
in vitro = details: human
LNCaP cells [2] = details: human
LNCaP cells [3] = test: WST-based cell viability assay in LNCaP cells; details: LNcaP, duplicates
[4] = system: U87-MG glioblastoma cells; test: Wound healing assay in U87-MG cells; assay type: cell-based; set-up: wound area, single experiment / wound area, Average: unit not given here; details: Fig. S4j
Protocol: To analyze cell migration in two dimensions, U-87 MG or ACHN cells were plated to a monolayer. Cells were scratched with a sterile 10 μl pipette tip and the debris was removed using medium. Cells were treated with compounds and incubated for different time to monitor cell behavior. Photographs were obtained using a microscope at different time point.

[5] = WST assay viability relative to con = 100
[6] = 4h, relative to 0h, con 63.7844
[7] = 12h, relative to 0h, con 49.0497
[8] = 24h, relative to 0h, con 11.2855

Chain of tauP301L (P10636 1-441 isoform P10636-8 P301L): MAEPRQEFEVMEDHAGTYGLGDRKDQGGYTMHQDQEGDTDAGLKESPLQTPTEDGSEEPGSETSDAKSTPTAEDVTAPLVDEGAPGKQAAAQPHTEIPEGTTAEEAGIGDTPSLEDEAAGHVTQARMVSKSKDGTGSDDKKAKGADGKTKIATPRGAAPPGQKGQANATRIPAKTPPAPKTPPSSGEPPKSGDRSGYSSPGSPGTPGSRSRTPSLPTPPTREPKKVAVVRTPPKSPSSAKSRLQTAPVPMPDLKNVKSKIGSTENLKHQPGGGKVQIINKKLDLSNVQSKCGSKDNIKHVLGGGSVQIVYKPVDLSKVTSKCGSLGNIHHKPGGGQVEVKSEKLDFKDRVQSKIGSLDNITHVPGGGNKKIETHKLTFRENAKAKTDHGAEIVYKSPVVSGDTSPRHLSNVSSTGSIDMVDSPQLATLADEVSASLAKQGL
T1 sequence (P50579 whole entry): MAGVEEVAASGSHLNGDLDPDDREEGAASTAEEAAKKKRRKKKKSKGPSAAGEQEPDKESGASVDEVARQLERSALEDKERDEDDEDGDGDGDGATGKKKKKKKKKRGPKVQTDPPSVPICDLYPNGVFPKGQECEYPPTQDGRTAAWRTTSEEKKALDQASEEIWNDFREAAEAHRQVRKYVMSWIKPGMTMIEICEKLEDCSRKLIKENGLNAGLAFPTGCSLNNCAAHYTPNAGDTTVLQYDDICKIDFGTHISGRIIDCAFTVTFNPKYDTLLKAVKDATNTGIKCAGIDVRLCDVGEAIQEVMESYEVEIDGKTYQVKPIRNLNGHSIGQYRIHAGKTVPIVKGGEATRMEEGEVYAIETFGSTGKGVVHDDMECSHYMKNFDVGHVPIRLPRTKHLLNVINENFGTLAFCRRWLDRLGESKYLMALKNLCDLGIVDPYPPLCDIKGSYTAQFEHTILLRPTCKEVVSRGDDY

Fc1ccc(COc2cccc(CNCCOCCOCCNc3cccc(-c4cc(-c5ccc6c(c5)OCO6)n[nH]4)c3)c2)cc1 [Anle.-F105]
FK2 (Ub) / p62 colocalization, AVG of cells per 50 cells (Ub^+ and p62^+ puncta; con vs Anle.-F105): 44.6667 | FK2 (Ub) / p62 colocalization, percentage AVG (Ub^+ and p62^+ puncta; con vs Anle.-F105): 89.3333 percentage | FK2 (Ub) / p62 colocalization, cells counted per 50 cells (individual replicates) (Ub^+ and p62^+ puncta; con vs Anle.-F105, count out of 50 cells): 44 and 42 and 48 | Tau normalized to GAPDH and control, AVG % (tauP301L; 1 nM): 89.5946% | Tau normalized to GAPDH and control, AVG % (tauP301L; 10 nM): 39.4372% | Tau normalized to GAPDH and control, AVG % (tauP301L; 100 nM): 27.9865% | Tau normalized to GAPDH and control, AVG % (tauP301L; 1 uM): 22.4452% | Tau normalized to GAPDH and control, AVG % (tauP301L; 2.5uM): 20.2653% | remaining activity at 2.5 µM (tauP301L; 2.5uM, read-out: (Tau normalized to GAPDH) normalized to control, percentage (individual replicates N=1, N=2, N=3)): 14.5% | Tau normalized to GAPDH and control, AVG % (tauP301L; 5uM): 9.605% | remaining activity at 5 µM (tauP301L; 5uM, read-out: (Tau normalized to GAPDH) normalized to control, percentage (individual replicates N=1, N=2, N=3)): 9.88% | Tau normalized to GAPDH and control, AVG % (tauP301L; 10uM): 11.8682% | remaining activity at 10 µM (tauP301L; 10uM, read-out: (Tau normalized to GAPDH) normalized to control, percentage (individual replicates N=1, N=2, N=3)): 10.3%

CO[C@@H]1[C@H](OC(=O)/C=C/C=C/C=C/C=C/C(=O)O)CC[C@]2(CO2)[C@H]1[C@@]1(C)O[C@@H]1CC=C(C)C [Fumagillin, reference compound]
MetAP2 normalized to control, AVG % ([1]; 2.5uM): 147.616% | MetAP2 normalized to control, AVG % ([1]; 10uM): 145.983%

Oc1ccc(-c2c(-c3ccccc3)nn3c(C(F)(F)F)cc(C(F)(F)F)nc23)cc1 [PHTPP, reference compound]
pIC50 (ACHN cells; ACHN cells, WST-based viability assay, read-out: cytotoxicity IC50): 4.74 | WST assay viability, AVG % (ACHN cells; 0.01uM): 98.8656% | WST assay raw reading (ACHN cells; 0.01uM): 1.014 and 0.955 | WST assay viability relative to con = 100 (ACHN cells; 0.01uM): 102.269 and 95.4624 | WST assay viability, AVG % (ACHN cells; 0.1uM): 95.5201% | WST assay raw reading (ACHN cells; 0.1uM): 0.951 and 0.96 | WST assay viability relative to con = 100 (ACHN cells; 0.1uM): 95.001 and 96.0392 | WST assay viability, AVG % (ACHN cells; 1uM): 90.0981% | WST assay raw reading (ACHN cells; 1uM): 0.95 and 0.867 | WST assay viability relative to con = 100 (ACHN cells; 1uM): 94.8856 and 85.3105 | WST assay viability, AVG % (ACHN cells; 10uM): 86.1757% | WST assay raw reading (ACHN cells; 10uM): 0.866 and 0.883 | WST assay viability relative to con = 100 (ACHN cells; 10uM): 85.1952 and 87.1563 | WST assay viability, AVG % (ACHN cells; 50uM): 10.8441% | WST assay raw reading (ACHN cells; 50uM): 0.239 and 0.204 | WST assay viability relative to con = 100 (ACHN cells; 50uM): 12.8629 and 8.825 | WST assay viability, AVG % (ACHN cells; 100uM): 2.365% | WST assay raw reading (ACHN cells; 100uM): 0.151 and 0.145 | WST assay viability relative to con = 100 (ACHN cells; 100uM): 2.711 and 2.019

C=CC1(C)OC(=O)N(c2cc(Cl)cc(Cl)c2)C1=O (stereo not shown) [Vinclozolin]
viability at 0.01 µM (in vitro; [5]): 96.4% | viability at 0.1 µM (in vitro; [5]): 91.3% | viability at 1 µM (in vitro; [5]): 89.8% | viability at 10 µM (in vitro; [5]): 92.8% | viability at 50 µM (in vitro; [5]): 94.7% | viability at 100 µM (in vitro; [5]): 111% | viability at 0.01 µM (in vitro; WST assay viability, AVG %): 100% | viability at 0.1 µM (in vitro; WST assay viability, AVG %): 97.6% | viability at 1 µM (in vitro; WST assay viability, AVG %): 93.6% | viability at 10 µM (in vitro; WST assay viability, AVG %): 98.3% | viability at 50 µM (in vitro; WST assay viability, AVG %): 102% | viability at 100 µM (in vitro; WST assay viability, AVG %): 106% | WST assay viability relative to con = 100 (LNCaP cells [2]; 0.01 µM): 103.812 | WST assay viability relative to con = 100 (LNCaP cells [2]; 0.1 µM): 103.962 | WST assay viability relative to con = 100 (LNCaP cells [2]; 1 µM): 97.4197 | WST assay viability relative to con = 100 (LNCaP cells [2]; 10 µM): 103.712 | WST assay viability relative to con = 100 (LNCaP cells [2]; 50 µM): 108.507 | WST assay viability relative to con = 100 (LNCaP cells [2]; 100 µM): 100.466 | WST assay raw reading (LNCaP cells [3]; 0.01uM): 2.034 and 2.182 | WST assay raw reading (LNCaP cells [3]; 0.1uM): 1.931 and 2.185 | WST assay raw reading (LNCaP cells [3]; 1uM): 1.901 and 2.054 | WST assay raw reading (LNCaP cells [3]; 10uM): 1.962 and 2.18 | WST assay raw reading (LNCaP cells [3]; 50uM): 1.999 and 2.276 | WST assay raw reading (LNCaP cells [3]; 100uM): 2.333 and 2.115

COC1C(OC(=O)C=CC=CC=CC=CC(=O)NCCOCCOCCNCc2cccc(OCc3ccccc3)c2)CCC2(CO2)C1C1(C)OC1CC=C(C)C (stereo not shown) [fuma-105]
wound area, single experiment ([4]; 0h): 1322200 and 1143900 and 1293400 | wound area, Average % ([4]; 0h (reference = 100)): 100% | wound area, Average ([4]; 0h, con 1278325): 1253167 | wound area, single experiment ([4]; 4h): 1229909 and 1112400 and 1025300 | wound area, Average ([4]; 4h, con 815372): 1122536 | wound area, Average % [4, 6]: 89.576% | wound area, single experiment ([4]; 12h): 999235 and 1073250 and 992572 | wound area, Average ([4]; 12h, con 627015): 1021686 | wound area, Average % [4, 7]: 81.5283% | wound area, single experiment ([4]; 24h): 562341 and 671624 and 616277 | wound area, Average ([4]; 24h, con 144265): 616747 | wound area, Average % [4, 8]: 49.2151%

COC1C(OC(=O)C=CC=CC=CC=CC(=O)O)CCC2(CO2)C1C1(C)OC1CC=C(C)C (stereo not shown) [fuma]
wound area, single experiment ([4]; 0h): 1171666 and 1405232 and 1275616 | wound area, Average % ([4]; 0h (reference = 100)): 100% | wound area, Average ([4]; 0h, con 1278325): 1284171 | wound area, single experiment ([4]; 4h): 1044299 and 1099925 and 1033344 | wound area, Average ([4]; 4h, con 815372): 1059189 | wound area, Average % [4, 6]: 82.4804% | wound area, single experiment ([4]; 12h): 806233 and 764432 | wound area, Average ([4]; 12h, con 627015): 778366 | wound area, Average % [4, 7]: 60.6123% | wound area, single experiment ([4]; 24h): 429520 and 509220 | wound area, Average ([4]; 24h, con 144265): 482653 | wound area, Average % [4, 8]: 37.5848%
